Measured values published in the supplement of paper PMC10307832.

How the values were obtained:
Test in all cases: relative viability (nuclei count vs DMSO), 5 days (fraction); higher = more cells survive
[1] = compound: CO[C@@H]1[C@H](N(C)C(=O)c2ccccc2)C[C@H]2O[C@]1(C)n1c3ccccc3c3c4c(c5c6ccccc6n2c5c31)C(=O)NC4 [Midostaurin]
Summary of the method: (§1)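 Lung cancer cell lines in 1536-well plates were exposed by pinning to five library-drug doses (not always all listed) √10 apart, following an overnight hold at 37 °C. MetaXpress counted Hoechst-stained nuclei from 4× images taken after 5 days without medium change. Viability is the median ratio of treated-well to vehicle-well nuclei across plates. Plates required control CV below 25% and at least one doubling.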

[2] = compound: COc1cc(-c2nn([C@H]3CC[C@H](N4CCN(C(C)=O)CC4)CC3)c3ncnc(N)c23)ccc1NC(=O)c1cc2ccccc2n1C
Summary of the method: as §1

[3] = compound: CO[C@@H]1[C@H](N(C)C(=O)c2ccccc2)C[C@H]2O[C@]1(C)n1c3ccccc3c3c4c(c5c6ccccc6n2c5c31)C(=O)NC4 [Midostaurin] + CC1(C)CCC(c2ccc(Cl)cc2)=C(CN2CCN(c3ccc(C(=O)NS(=O)(=O)c4ccc(N[C@H](CCN5CCOCC5)CSc5ccccc5)c(S(=O)(=O)C(F)(F)F)c4)cc3)CC2)C1 [Navitoclax] (partner 0.5 µM)
Summary of the method: (§2)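 Relative viability divides the nuclei count in treated wells by that in vehicle wells. Lung cancer cell lines were seeded in 1536-well plates, dosed by pin tool the next day, and fixed and stained after 5 days in one step with final 0.05% Triton X-100, 1% formaldehyde and 1 ug/ml Hoechst. Dosing was a single drug or a fixed anchor-drug dose plus five library-drug doses (not always all listed) in √10 steps, and values are medians of duplicate plates imaged at 4×.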

[4] = compound: CO[C@@H]1[C@H](N(C)C(=O)c2ccccc2)C[C@H]2O[C@]1(C)n1c3ccccc3c3c4c(c5c6ccccc6n2c5c31)C(=O)NC4 [Midostaurin] + Nc1nc2[nH]cc(CCc3ccc(C(=O)N[C@@H](CCC(=O)O)C(=O)O)cc3)c2c(=O)[nH]1 [Pemetrexed] (partner 0.2 µM)
Summary of the method: as §2

[5] = compound: COc1cc(-c2nn([C@H]3CC[C@H](N4CCN(C(C)=O)CC4)CC3)c3ncnc(N)c23)ccc1NC(=O)c1cc2ccccc2n1C + Cc1cc(Nc2cc(N3CCN(C)CC3)nc(Sc3ccc(NC(=O)C4CC4)cc3)n2)n[nH]1 [Tozasertib] (partner 0.1 µM)
Summary of the method: as §2

UMC-11
relative viability ([1]; 0.01 µM): 0.984 | relative viability ([1]; 0.03162 µM): 0.901 | relative viability ([1]; 0.1 µM): 1 | relative viability ([1]; 0.3162 µM): 0.617 | relative viability ([2]; 0.0128 µM): 1.04 | relative viability ([2]; 0.04048 µM): 0.955 | relative viability ([2]; 0.128 µM): 0.927 | relative viability ([2]; 1.28 µM): 0.84 | relative viability ([3]; first compound 0.01 µM): 0.32 | relative viability ([3]; first compound 0.03162 µM): 0.346 | relative viability ([3]; first compound 0.1 µM): 0.241 | relative viability ([3]; first compound 0.3162 µM): 0.177 | relative viability ([4]; first compound 0.01 µM): 0.808 | relative viability ([4]; first compound 0.03162 µM): 0.753 | relative viability ([4]; first compound 0.1 µM): 0.65 | relative viability ([4]; first compound 0.3162 µM): 0.528 | relative viability ([5]; first compound 0.0128 µM): 0.225 | relative viability ([5]; first compound 0.04048 µM): 0.19 | relative viability ([5]; first compound 0.128 µM): 0.197 | relative viability ([5]; first compound 1.28 µM): 0.193
